From patent US4200755A, “2-Hydro xy-5-[1-hydroxy-2-[4-(2-oxo-1-benzimidazolinyl)piperidino]ethyl]benzoic acid derivatives” (Richardson-Merrell Inc., priority 1979, dated 1980)
Where a name gives a salt, the structure may show the parent alone.

Legend:
[1] = tested on: α-adrenergic receptor; test: α-Adrenergic receptor blocking activity in vitro, isolated rabbit aortic strip preparation, norepinephrine as agonist; type: cell-based
Experimental: (§1) The following Example is illustrative of the α and β-adrenergic blocking activity and the direct spasmolytic activity for the compounds of this invention.
α-Adrenergic receptor blocking activity is determined in vitro by performing cumulative dose-response experiments in the isolated rabbit aortic strip preparation using norepinephrine as the agonist. The contractile response of the rabbit strip preparation in the presence of logarithmically increasing concentrations of the compounds being tested are expressed as percent of the maximal attainable response. Relative antagonistic potency is expressed as a pA2 value.

[2] = target: T1, β-adrenergic receptor (Cavia porcellus, UniProt H0W3H1); test: β-Adrenergic receptor blocking activity in vitro, isolated guinea pig atria preparation, isoproterenol as agonist; type: cell-based; details: isolated guinea pig atria (increase in rate), read-out: pA2 β (converted)
T1 construct: isolated guinea pig atria preparation; from tissue; host or cells: guinea pig atria
Experimental: as §1
(§2) β-Adrenergic receptor blocking activity is determined in vitro by performing cumulative dose-response experiments in the isolated guinea pig atria preparation using isoproterenol as the agonist. The response (increase in rate) of the guinea pig atria preparation in the presence of logarithmically increasing concentrations of the compounds being tested are expressed as percent of the maximal attainable response. Relative antagonistic potency is expressed as a pA2 value, as defined above.

[3] = tested on: isolated guinea pig ileum preparation; test: Direct spasmolytic activity in vitro, isolated guinea pig ileum preparation, barium chloride as agonist; type: cell-based
Experimental: as §1
as §2, with “Direct spasmolytic” for “β-Adrenergic receptor blocking”, “dose response” for “dose-response”, “ileum” for “atria”, “barium chloride” for “isoproterenol”, “The contractile” for “The”, “response” for “response (increase in rate)”

[4] = tested on: spontaneously hypertensive rats (SHR); test: Antihypertensive activity in spontaneously hypertensive rats (SHR), systolic blood pressure; type: in vivo, rat (SHR, Okomoto-Aoki strain); details: oral 50 mg/kg
Experimental: The following Example illustrates the antihypertensive activity for the compounds of this invention. Antihypertensive activity is determined in spontaneously hypertensive rats (SHR) of the Okomoto-Aoki strain. Systolic blood pressure of the SHR is measured from the caudal artery by means of an indirect method utilizing a photocell transducer/tail cuff occluder system. Time response relationships are determined for each compound following an oral dose of 50 mg/kg. Data are expressed as mm of Hg decrease from control values. Statistical significance is determined using a 2 tailed "t" test comparing drug treatment response values to those obtained from concurrent vehicle treated animals.

T1 sequence (H0W3H1 1-470): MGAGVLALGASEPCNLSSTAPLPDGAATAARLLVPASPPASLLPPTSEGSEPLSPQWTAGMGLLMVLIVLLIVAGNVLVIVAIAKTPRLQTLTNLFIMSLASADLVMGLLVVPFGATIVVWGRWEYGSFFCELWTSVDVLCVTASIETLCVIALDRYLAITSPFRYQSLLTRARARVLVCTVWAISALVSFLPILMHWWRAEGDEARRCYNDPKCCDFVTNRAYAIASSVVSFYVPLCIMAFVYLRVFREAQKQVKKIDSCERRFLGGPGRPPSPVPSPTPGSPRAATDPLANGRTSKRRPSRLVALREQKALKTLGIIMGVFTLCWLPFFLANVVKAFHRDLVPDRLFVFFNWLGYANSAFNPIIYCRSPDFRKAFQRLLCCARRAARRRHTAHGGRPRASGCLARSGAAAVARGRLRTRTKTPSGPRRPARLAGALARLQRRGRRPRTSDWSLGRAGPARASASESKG

Row | Structure (SMILES) | pA2 α [1] | Kb [2] [µM] | pA2 BaCl2 (Direct Spasmolytic Activity) [3] | lowers blood pressure (decrease from control values) ([4]; after 1 hour) [mm Hg] | lowers blood pressure (decrease from control values) ([4]; after 4 hours) [mm Hg]
1 | COC(=O)c1cc(C(O)CN2CCC(n3c(=O)[nH]c4ccccc43)CC2)ccc1O (stereo not drawn) [Compound 1, methyl 2-hydroxy-5-[1-hydroxy-2-[4-(2-oxo-1-benzimidazolinyl)piperidino]ethyl]benzoate hydrochloride] | 6.94 | 1.95 | 5.90 |  | 
2 | NC(=O)c1cc(C(O)CN2CCC(n3c(=O)[nH]c4ccccc43)CC2)ccc1O (stereo not drawn) [Compound 2, 2-hydroxy-5-[1-hydroxy-2-[4-(2-oxo-1-benzimidazolinyl)piperidino]ethyl]benzamide hydrochloride monohydrate] | 6.70 | 3.55 | < 4.20 |  | 
3 | CCNC(=O)c1cc(C(O)CN2CCC(n3c(=O)[nH]c4ccccc43)CC2)ccc1O (stereo not drawn) [Compound 3, 2-hydroxy-5-[1-hydroxy-2-[4-(2-oxo-1-benzimidazolinyl)piperidino]ethyl]-N-ethylbenzamide hydrochloride] | 6.63 | > 4.17 | 5.16 | 22 | 51
4 | Cc1ccc(N(CC2=NCCN2)c2cccc(O)c2)cc1 [phentolamine, reference compound] |  | > 10 |  |  | 
